Assay results as given in patent publication US9585871B2, “Method for treating and curing leishmaniosis using fexinidazole” (Merial Limited, priority 2013, dated 2017).
Where two headings read alike, the source gives them in different places.

Legend:
[1] = Multiple dosing study in dogs: systemic exposure (plasma) to fexinidazole and its metabolites; type: in vivo, dog; settings: dog, plasma, po; for AUC(0-t): read-out: AUC0-t (last)
Procedure: In an embodiment, the fexinidazole may be administered to the canine as an aqueous oral suspension, comprising 5% TWEEN 80 and 0.5% Methyl cellulose 400 cP (METHOCEL). Provided in this format, fexinidazole suspensions of 5, 20, and 80 mg fexinidazole/mL may be prepared such that 10 mL of each concentration contains 50, 200, and 800 mg fexinidazole, respectively.
(§1) Moreover, inventors expect that a wide variety of dosing regimens are now available to the skilled person to achieve the necessary and sufficient fexinidazole plasma levels. For example, and as further outlined in the Examples below, any dosing regimen that produces substantially similar fexinidazole plasma levels, as compared to those levels produced by giving the dogs about 60 mg/kg/day for about twenty-eight days, is expected to substantially or completely eliminate the Leishmania parasites. Table 1 presents the systemic fexinidazole exposure following dosing of dogs with 50, 200, and 800 mg/kg/day.

[2] = Multiple dosing study in dogs, 28 consecutive days oral: tolerability; type: in vivo, dog; settings: for Effects observed: dog, in vivo
Description: In a particular embodiment, the sufficient fexinidazole plasma levels are achieved by administering oral veterinary compositions comprising an effective amount of fexinidazole over a period of time of at least about twenty days. The fexinidazole may be administered according to any effective regimen, including, but not solely, once weekly, twice weekly, once daily, or twice daily. All that is required is that dosing regimen maintains a sufficient fexinidazole plasma level, over a sufficient period of time, to substantially or completely eliminate or cure the Leishmania infections.
as §1

[3] = Toxicology summary: maximum dose after oral administration, rats; type: in vivo
Description: (§2) Toxicology summary. In mice and rats, the maximum fexinidazole (FEX) dose after oral administration is 10 g/kg of body weight. […] Finally, as regards PK, labeled FEX and its metabolites were excreted within 3 days in the feces (52-58%) and urine (36-40%).

bone marrow micronucleus = experiment: Mammalian cell mutagenicity, bone marrow micronucleus study; type: in vivo; settings: all test concentrations (500, 1000 and 2000 mg/kg)
Description: as §2

[4] = tested on: Leishmania donovani amastigotes grown in macrophages; settings: Wyllie S et al., 2012; cited from earlier work
[5] = female, 200 mg/kg/day, Female Dog, 200 mg/kg/day oral, D1, mean ± SD, n = 3
[6] = female, 200 mg/kg/day, Female Dog, 200 mg/kg/day oral, D14, mean ± SD, n = 3
[7] = female, 200 mg/kg/day, Female Dog, 200 mg/kg/day oral, D28, mean ± SD, n = 3
[8] = female, 800 mg/kg/day, Female Dog, 800 mg/kg/day oral, D1, mean ± SD, n = 5
[9] = female, 800 mg/kg/day, Female Dog, 800 mg/kg/day oral, D14, mean ± SD, n = 5
[10] = female, 800 mg/kg/day, Female Dog, 800 mg/kg/day oral, D28, mean ± SD, n = 5
[11] = male, 50 mg/kg/day, Male Dog, 50 mg/kg/day oral, D1, mean ± SD, n = 3
[12] = male, 50 mg/kg/day, Male Dog, 50 mg/kg/day oral, D14, mean ± SD, n = 3
[13] = male, 50 mg/kg/day, Male Dog, 50 mg/kg/day oral, D28, mean ± SD, n = 3
[14] = male, 200 mg/kg/day, Male Dog, 200 mg/kg/day oral, D1, mean ± SD, n = 3
[15] = male, 200 mg/kg/day, Male Dog, 200 mg/kg/day oral, D14, mean ± SD, n = 3
[16] = male, 200 mg/kg/day, Male Dog, 200 mg/kg/day oral, D28, mean ± SD, n = 3
[17] = male, 800 mg/kg/day, Male Dog, 800 mg/kg/day oral, D1, mean ± SD, n = 5
[18] = male, 800 mg/kg/day, Male Dog, 800 mg/kg/day oral, D14, mean ± SD, n = 5
[19] = male, 800 mg/kg/day, Male Dog, 800 mg/kg/day oral, D28, mean ± SD, n = 5

CSc1ccc(OCc2ncc([N+](=O)[O-])n2C)cc1 [Fexinidazole, fexinidazole]
Cmax [1, 5]: 84.1 ± 36.7 ng/mL | Tmax [1, 5]: 1 h | AUC(0-t) [1, 5]: 454 ± 119 ng·h/mL | Cmax [1, 6]: 77.7 ± 50.8 ng/mL | Tmax [1, 6]: 2 h | AUC(0-t) [1, 6]: 443 ± 217 ng·h/mL | Cmax [1, 7]: 73 ± 12 ng/mL | Tmax [1, 7]: 1 h | AUC(0-t) [1, 7]: 377 ± 83.5 ng·h/mL | Cmax [1, 8]: 184 ± 75.6 ng/mL | Tmax [1, 8]: 1.2 ± 0.45 h | AUC(0-t) [1, 8]: 895 ± 437 ng·h/mL | Cmax [1, 9]: 152 ± 44 ng/mL | Tmax [1, 9]: 1.4 ± 0.55 h | AUC(0-t) [1, 9]: 1170 ± 309 ng·h/mL | Cmax [1, 10]: 101 ± 47.1 ng/mL | Tmax [1, 10]: 1 h | AUC(0-t) [1, 10]: 956 ± 378 ng·h/mL | Cmax [1, 11]: 31.2 ± 12.4 ng/mL | Tmax [1, 11]: 0.5 h | AUC(0-t) [1, 11]: 140 ± 147 ng·h/mL | Cmax [1, 12]: 26.5 ± 13 ng/mL | Tmax [1, 12]: 0.5 h | AUC(0-t) [1, 12]: 52.1 ± 29.4 ng·h/mL | Cmax [1, 13]: 20.3 ± 7.89 ng/mL | Tmax [1, 13]: 1 h | AUC(0-t) [1, 13]: 124 ± 67 ng·h/mL | Cmax [1, 14]: 54.9 ± 10.8 ng/mL | Tmax [1, 14]: 1 ± 0.87 h | AUC(0-t) [1, 14]: 419 ± 61.4 ng·h/mL | Cmax [1, 15]: 78.1 ± 23.5 ng/mL | Tmax [1, 15]: 1 ± 0.87 h | AUC(0-t) [1, 15]: 452 ± 41.1 ng·h/mL | Cmax [1, 16]: 57.9 ± 12.5 ng/mL | Tmax [1, 16]: 1 h | AUC(0-t) [1, 16]: 395 ± 15.8 ng·h/mL | Cmax [1, 17]: 100 ± 21.2 ng/mL | Tmax [1, 17]: 1.1 ± 0.55 h | AUC(0-t) [1, 17]: 776 ± 182 ng·h/mL | Cmax [1, 18]: 128 ± 56.9 ng/mL | Tmax [1, 18]: 1 h | AUC(0-t) [1, 18]: 929 ± 268 ng·h/mL | Cmax [1, 19]: 86.2 ± 38.5 ng/mL | Tmax [1, 19]: 1.2 ± 0.4 h | AUC(0-t) [1, 19]: 736 ± 141 ng·h/mL | Effects observed ([2]; 200 mg/kg/day): no effects were observed | Effects observed ([2]; 800 mg/kg/day): only minor effects were observed | Tolerability ([2]; dogs, oral 50, 200 and 800 mg/kg/day for 28 consecutive days): well tolerated | maximum dose after oral administration [3]: 10 g/kg of body weight | mammalian cell mutagenicity, bone marrow micronucleus study (bone marrow micronucleus): negative | activity against Leishmania donovani amastigotes grown in macrophages [4]: inactive
